The results in this text go back to patent US20220378923A1, “BET DEGRADER” (KYOWA KIRIN CO., LTD., priority 2019, published 2022).

In experiment [1] the test system is MYC mRNA expression in SU-DHL-4 cells. Briefly: Suppressive effect on MYC mRNA expression (Test Example 2). Type of experiment: cell-based, human. As to conditions: Homo sapiens, test compound 100 nmol/L, 6 hours, qRT-PCR corrected by ACTB, GAPDH, HPRT1, read-out: Suppression Rate of MYC mRNA Expression (%). Here is the method: The cells were passaged twice a week at a volume of 20-40 mL so as to maintain a cell concentration of 1×10^6 cells/mL or less. The cultured SU-DHL-4 cells were seeded at 6×10^5 cells/well in a transparent 6-well plate (Code No. 140675, Thermo Fisher Scientific). After seeding, the cells were precultured at 37° C. in a carbon dioxide gas incubator for 18 to 25 hours. […] At this time, the final concentration of DMSO was adjusted to be 0.1 vol %. After adding the test compound, the cells were cultured at 37° C. in a carbon dioxide gas incubator for 6 hours. Then, the cells were collected by centrifugation and used for extraction of mRNA. mRNA extraction from cells was performed using Maxwell® 16 LEV simplyRNA Purification Kits (Code No. AS1270, Promega). The mRNA recovery protocol was performed according to the manufacturer's recommended protocol attached to the kit. […] The cDNA conversion was performed, according to the manufacturer's recommended protocol attached to the kit, in 0.020 mL of the reaction solution, and GeneAmp® PCR System 9700 (Applied Biosystems) was used. The cDNA-converted sample was diluted 10-fold by adding 0.180 mL of RNase Free Water (Code No. 10977-023, Thermo Fisher Scientific) and used for quantitative real-time polymerase chain reaction (qRT-PCR). For the calibration curve of qRT-PCR, 0.08 mL of RNase Free Water was added to a cDNA sample using DMSO as a test compound for 5-fold dilution. Further, two 5-fold dilutions were prepared stepwise, and these three samples were used as the calibration curve samples. The following reagents were used for qRT-PCR: TaqMan Gene Expression Assays, Inventoried (Primer probe: Code No. 4331182, Thermo Fisher Scientific, Assay ID: (i) MYC: Hs00153408_m1, (ii) ACTB: Hs01060665_g1, (iii) GAPDH: Hs04420697_g1, (iv) HPRT1: […] Universal PCR Master Mix, no AmpEraseR UNG (Master Mix: Code No. 4367846, Thermo Fisher Scientific). Primer probe (0.001 mL), Master Mix (0.010 mL), water (0.004 mL) and the diluted cDNA sample (0.005 mL) were mixed, and qRT-PCR analysis was performed. For qRT-PCR analysis, QuantStudio 7 Flex (Thermo Fisher Scientific) or 7500 Fast Real-Time PCR (Applied Biosystems) was used to measure in Fast mode and analyze. […] Corrected MYC expression=A/B • A: MYC expression level • B: Geometric mean of expression levels of ACTB, GAPDH and HPRT1 Using the corrected values, the suppression rate of MYC expression for the wells to which the test compound was not added was calculated by the following formula. […] Corrected MYC expression level in a well containing test compound • D: Corrected MYC expression level in a well to which test compound was not added

The next experiment deals with DCAF16 KO SU-DHL-4 cells. Briefly: Inhibitory effect on cell viability using SU-DHL-4 DCAF16 knock out (KO) cell line (Test Example 6). Type of experiment: cell-based, human. Here is the method:
The human DLBCL cell line SU-DHL-4 was purchased from DSMZ. SU-DHL-4 was passaged using RPMI1640 medium containing 10 vol % FBS. After the Cas9 gene was introduced, the cells were cultured in the above medium containing 0.01 mg/mL blasticidin (InvivoGen, Cat No. ant-bl-1). After introduction of sgRNA, the cells were cultured in the above medium containing 0.0001 mg/mL puromycin dihydrochloride (SIGMA, Cat No. P9020-10 ML). The culture conditions were 37° C. and 5% CO2.
Edit-R Lentiviral hEF1α-Blast-Cas9 Nuclease Particles (Cat No. VCAS10126) was used as a lentivirus for expressing Cas9 in human cell lines. Three types of Edit-R Human DCAF16 Lentiviral sgRNA (Cat No. VSGH10142-246568260; DNA target sequence […] (SEQ ID NO: 1), Cat No. VSGH10142-246568262; DNA target sequence […] (SEQ ID NO: 2) and Cat No. VSGH10142-246568263; DNA target sequence […] (SEQ ID NO: 3)) were used as lentiviruses for introducing DCAF16 sgRNA. As a control, Edit-R Lentiviral sgRNA Non-targeting Control #1 (Cat No. VSGC10215) was used. All lentiviruses were purchased from Dharmacon and stored at −80° C. until use.
SU-DHL-4 was suspended at 4×10^5 cells/mL in RPMI 1640 without FBS, 0.25 mL of the suspension was added to a 24-well plate, and the cells were cultured overnight. The next day, 0.003 mL of virus particles of Edit-R Lentiviral hEF1α-Blast-Cas9 Nuclease Particles was added. After culturing in a CO2 incubator for 4 hours, RPMI 1640 containing 0.75 mL of 10 vol % FBS was added. After culturing in a CO2 incubator for about 48 hours, the medium was replaced with RPMI1640 containing 10 vol % FBS, and the cells were cultured in a CO2 incubator. Four days after infection, the medium was replaced with a medium containing 0.01 mg/mL blasticidin (InvivoGen, Cat No. ant-bl-1). Then, the cells were passaged once every 2 to 3 days and thus twice in total (that is, cultured for 1 week) to obtain SU-DHL-4/Cas9, which is a Cas9-introduced SU-DHL-4 cell line.
(6) sgRNA infection SU-DHL-4/Cas9 was suspended at 4×10^5 cells/mL in RPMI 1640 without FBS, 0.25 mL of the suspension was added to a 24-well plate, and the cells were cultured overnight. The next day, a total of 4 types of sgRNA virus particles, 1 type of Control and 3 types targeting DCAF16 were added to the respective wells by 0.03 mL. After culturing in a CO2 incubator for 5 hours, RPMI 1640 containing 0.75 mL of 10 vol % FBS was added.
After culturing in a CO2 incubator for about 48 hours, the medium was replaced with RPMI1640 containing 10 vol % FBS, and the cells were cultured in a CO2 incubator. Four days after infection, the medium was replaced with a medium supplemented with 0.01 mg/mL puromycin dihydrochloride (SIGMA, Cat No. P9020-10 ML). Then, the cells were passaged once or twice a week for 2 weeks, and a cell stock was prepared using CELLBANKER I plus (Takara Bio, Cat No. CB-021). Cell line stock was stored at −80° C. Using Edit-R Lentiviral sgRNA Non-targeting Control #1, the Negative Control sequence was introduced into the SU-DHL-4 cell line, which was referred to as SU-DHL-4 NC strain, and using Edit-R Human DCAF16 Lentiviral sgRNA, […] sequence (SEQ ID NO: 1) was introduced into the SU-DHL-4 cell line, which was referred to as SU-DHL-4 DCAF16 KO1 strain, […] sequence (SEQ ID NO: 2) was introduced into the SU-DHL-4 cell line, which was referred to as SU-DHL-4 DCAF16 KO2 strain, and […] sequence (SEQ ID NO: 3) was introduced into the SU-DHL-4 cell line, which was referred to as SU-DHL-4 DCAF16 KO 3 strain.
The cultured DCAF16 KO SU-DHL-4 cells were seeded at 2000 cells/well in a transparent 384-well plate (Code No. 781182, Greiner bio-one). After seeding, the cells were pre-cultured at 37° C. in a carbon dioxide gas incubator for 18 to 25 hours. […]

The target of a further experiment is T1, BRD2 (Homo sapiens, UniProt P25440).
T1 construct: Changes in the amount of BRD4, BRD2 and BRD3 proteins in the SU-DHL-4 cell line; endogenous in cells; host or cells: SU-DHL-4
Briefly: Evaluation of BET proteolysis in SU-DHL-4 cell line by Western blotting: BRD2 (Test Example 4). As to conditions: SU-DHL-4 cells, test compound 100 nmol/L, 24 hours. Type of experiment: cell-based. The protocol: (§1) The human DLBCL cell line SU-DHL-4 was purchased from DSMZ. SU-DHL-4 was passaged using RPMI1640 medium containing 10 vol % FBS. The culture conditions were 37° C. and 5% CO2.
Anti-BRD2 antibody: Brd2 (D8964) Rabbit mAb (Cell Signaling Technology, Cat No. #5848S)
(§2) Changes in the amount of BRD4, BRD2 and BRD3 proteins in the SU-DHL-4 cell line by the test compound (compound 1b, compound 1l or compound P3) were detected by WB. The compound P3 is a compound described as example 14 in the known Patent Document 2 (WO 2015/081284), which was synthesized according to the method described in Patent Document 2 and used in this test.
(§3) The cultured SU-DHL-4 cells were seeded at 6×10^5 cells/well in a transparent 6-well plate (Code No. 140675, Thermo Fisher Scientific). After seeding, the cells were pre-cultured at 37° C. in a carbon dioxide gas incubator for 18 to 25 hours. Next, a 0.1 mmol/L DMSO solution of the test compound was prepared, diluted so that the concentration was 200-fold of the final concentration in RPMI1640 medium containing the above FBS and PS, and 1/200 volume of the diluted solution was added to each well. At this time, the final concentration of DMSO was adjusted to be 0.1 vol %. After adding the test compound, the cells were cultured at 37° C. in a carbon dioxide gas incubator for 24 hours.
(§4) After collecting the cells, the supernatant was aspirated, and Lysis buffer 6 (R&D systems, Cat No. 895561) was added to the pellet at 0.1 mL/sample. After incubating on ice for 60 minutes, the supernatant was collected by centrifugation at 15000 rpm for 10 minutes at 4° C.
(§5) Using Pierce BCA Protein Assay Kit (Thermo Fisher, Cat No. 23225), the protein concentration of each sample was quantified according to the manual attached to the kit, and then was diluted and prepared with Lane Marker Reducing Sample Buffer (5×) (Thermo Fisher, Cat No. 39000) and Lysis buffer 6 to 1 mg/mL. The cells were incubated at 95° C. for 5 minutes to prepare WB samples. WB samples were stored at −30° C. until electrophoresis.
(§6) The WB sample was thawed and used after vortex mixing and spin down. […]
A general note: In western blotting, separated proteins are transferred to a membrane and probed.

In another experiment the target is T2, BRD3 (Homo sapiens, UniProt Q15059).
T2 construct: Changes in the amount of BRD4, BRD2 and BRD3 proteins in the SU-DHL-4 cell line; endogenous in cells; host or cells: SU-DHL-4
The experiment in a line: Evaluation of BET proteolysis in SU-DHL-4 cell line by Western blotting: BRD3 (Test Example 4). Type of experiment: cell-based. The settings on record: SU-DHL-4 cells, test compound 100 nmol/L, 24 hours. The protocol: as §1
Anti-BRD3 antibody: Anti-BRD3 antibody (2088C3a) (Santa Cruz Biotechnology, Cat No. sc-81202)
as §2, §3, §4, §5, §6

The next experiment addresses T3, BRD4 (Homo sapiens, UniProt O60885).
T3 construct: Changes in the amount of BRD4, BRD2 and BRD3 proteins in the SU-DHL-4 cell line; endogenous in cells; host or cells: SU-DHL-4
Briefly: Evaluation of BET proteolysis in SU-DHL-4 cell line by Western blotting: BRD4 (Test Example 4). Type of experiment: cell-based. As to conditions: SU-DHL-4 cells, test compound 100 nmol/L, 24 hours. The protocol:
as §1
Anti-BRD4 antibody: BRD4 (E2A7X) Rabbit mAb (Cell Signaling Technology, Cat No. #13440S)
as §2, §3, §4, §5, §6

T1 sequence (P25440 whole entry): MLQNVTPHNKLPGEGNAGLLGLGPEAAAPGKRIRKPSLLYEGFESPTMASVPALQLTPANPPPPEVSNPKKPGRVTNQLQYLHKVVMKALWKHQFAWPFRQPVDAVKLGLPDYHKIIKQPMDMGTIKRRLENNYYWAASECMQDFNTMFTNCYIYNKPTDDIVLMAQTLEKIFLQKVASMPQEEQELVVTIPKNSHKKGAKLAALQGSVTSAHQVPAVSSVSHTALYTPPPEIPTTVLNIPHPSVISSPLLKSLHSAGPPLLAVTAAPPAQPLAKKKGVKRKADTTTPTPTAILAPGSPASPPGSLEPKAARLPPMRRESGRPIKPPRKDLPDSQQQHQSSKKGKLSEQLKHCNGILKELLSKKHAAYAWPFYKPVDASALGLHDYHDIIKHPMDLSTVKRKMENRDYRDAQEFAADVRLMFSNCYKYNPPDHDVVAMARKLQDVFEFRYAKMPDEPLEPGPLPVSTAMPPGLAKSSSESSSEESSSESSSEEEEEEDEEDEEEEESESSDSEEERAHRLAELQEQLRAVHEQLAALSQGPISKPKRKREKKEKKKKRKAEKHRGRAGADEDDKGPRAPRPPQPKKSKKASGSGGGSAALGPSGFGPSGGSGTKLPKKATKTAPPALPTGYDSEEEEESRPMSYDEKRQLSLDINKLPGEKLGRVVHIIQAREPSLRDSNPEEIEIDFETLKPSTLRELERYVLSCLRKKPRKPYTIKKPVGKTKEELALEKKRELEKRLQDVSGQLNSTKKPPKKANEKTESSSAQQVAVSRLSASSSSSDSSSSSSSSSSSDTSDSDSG
T2 sequence (Q15059 whole entry): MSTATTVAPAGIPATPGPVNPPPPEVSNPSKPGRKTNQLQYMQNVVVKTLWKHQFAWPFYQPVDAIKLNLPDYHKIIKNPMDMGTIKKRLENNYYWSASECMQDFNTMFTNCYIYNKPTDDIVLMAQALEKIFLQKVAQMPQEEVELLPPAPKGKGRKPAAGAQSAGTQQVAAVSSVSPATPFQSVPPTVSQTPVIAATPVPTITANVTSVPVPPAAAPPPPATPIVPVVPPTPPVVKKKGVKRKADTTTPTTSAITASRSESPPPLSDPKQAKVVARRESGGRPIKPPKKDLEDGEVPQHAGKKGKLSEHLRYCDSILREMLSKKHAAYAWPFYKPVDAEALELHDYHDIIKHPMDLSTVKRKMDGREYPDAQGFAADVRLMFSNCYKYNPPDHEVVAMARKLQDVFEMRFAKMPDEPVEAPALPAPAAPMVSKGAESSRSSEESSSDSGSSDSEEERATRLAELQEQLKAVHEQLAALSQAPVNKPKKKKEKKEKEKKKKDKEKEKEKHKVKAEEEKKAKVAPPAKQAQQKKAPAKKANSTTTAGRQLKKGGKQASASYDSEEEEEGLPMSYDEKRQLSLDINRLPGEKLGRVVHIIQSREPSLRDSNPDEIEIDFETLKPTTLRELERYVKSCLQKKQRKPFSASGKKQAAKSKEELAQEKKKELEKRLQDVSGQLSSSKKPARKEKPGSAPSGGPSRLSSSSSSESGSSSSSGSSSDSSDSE

Regarding `CCC(=O)N1c2ccccc2[C@H](Nc2ccc(NC(=O)CCCC(=O)Nc3ccc(N[C@@H]4C[C@H](C)N(C(=O)CC)c5ccccc54)cc3)cc2)C[C@@H]1C` (relative stereo) [Compound 4a, N^1,N^5-bis(4-{[(2S*,4R*)-2-Methyl-1-propionyl-1,2,3,4-tetrahydroquinolin-4-yl]amino}phenyl)glutaramide], the inhibition at 0.1 µM in experiment [1] turned out to be 98.4%. In the experiment on DCAF16 KO SU-DHL-4 cells ((SU-DHL-4 DCAF16 KO IC50)/(SU-DHL-4 WT IC50)), the “Activity Attenuation Ratio” value is listed as 361. For the same compound, half-maximal inhibition in the experiment with DCAF16 KO SU-DHL-4 cells (Homo sapiens, DCAF16 KO SU-DHL-4 cells, 72 hours, Cell Counting Kit-8, 50% inhibition of cell viability) (IC50) required 75.8 nM.
`CCNC(=O)C[C@@H]1N=C(c2ccc(SCCCCSc3ccc(C4=N[C@@H](CC(=O)NCC)c5nnc(C)n5-c5ccc(OC)cc54)cc3)cc2)c2cc(OC)ccc2-n2c(C)nnc21` [Compound P3, 2,2′-((4S,4'S)-6,6′-((butane-1,4-diylbis(sulfanediyl))bis(4,1-phenylene))bis(8-methoxy-1-methyl-4H-benzo[f][1,2,4]triazolo[4,3-a][1,4]diazepine-6,4-diyl))bis(N-ethylacetamide), reference compound]: the “change in amount of BRD2 protein (band in Western blotting, FIG. 1)” value at BRD2 was “the band was not faint compared with that of control”. Further, on BRD3, the “change in amount of BRD3 protein (band in Western blotting, FIG. 1)” value is “the band was not faint compared with that of control”. The “change in amount of BRD4 protein (band in Western blotting, FIG. 1)” value at BRD4 is given as “the band was not faint compared with that of control”.

The IC50 is the concentration that inhibits the measured activity by half. A low value points to greater potency.
